Laboratory results as given in patent US10335398B2 (MAXINASE LIFE SCIENCES LIMITED, priority 2015, dated 2019).

Assays:
[1] = Pharmacokinetic study on Bioadhesive Composition in Beagle dogs; conditions: for half-life: t1/2, Beagle dogs;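 as to all read-outs here: eight Beagle dogs (4 male, 4 female), five-period crossover with 3-day washouts, plasma levels quantified by validated LC-MS/MS, oral dosing after roughly 16 h fast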
Method: (§1) Eight Beagle dogs (4 male and 4 female) participated in the study. The study was preceded in five cross-over periods, separated by 3-day washout period. For oral administration, dogs were fasted about 16 hours prior to the dosing but had free access to water. […] Each oral dosing was administered with 20-30 mL of water. […] Blood samples were collected at pre-dose (0 min) and at 5, 10, 15, 30, 45 minutes; and at 1, 2, 3, 4, 6, 8, 12, 24 hours post-dose. After the plasma-separation process, the samples were analyzed by a validated LC-MS/MS method.

in vivo = conditions: both, beagle, dog, plasma, 1 mg
Method: as §1

[2] = Beagle dogs, analyte 7-OH Granisetron, IV Kytril® IV Infusion 1 mg
[3] = Beagle dogs, analyte 7-OH Granisetron, nasal GNS-B01 0.5 mg
[4] = Beagle dogs, analyte 7-OH Granisetron, nasal GNS-B01 1.0 mg
[5] = Beagle dogs, analyte 7-OH Granisetron, nasal GNS-B01 2 mg
[6] = Beagle dogs, analyte 7-OH Granisetron, oral Kytril® tablet 1 mg

In the case of CN1[C@@H]2CCC[C@H]1C[C@H](NC(=O)c1nn(C)c3c(O)cccc13)C2 [7-OH Granisetron], the “amount of 7-OH Granisetron in plasma after oral dosing compared to intranasal administration” value ([1]; Beagle dogs) is reported as “about twice as much”, the AUC0-last [1, 2] is reported as 1389 ± 465 ng·min/mL and the “AUC0-∞” value [1, 2] is reported as 1419 ± 470 ng·min/mL. The CL/F [1, 2] was 0.77 ± 0.25 L/min, the Cmax [1, 2] was 4.28 ± 1.20 ng/mL and the MRT [1, 2] was 4.95 ± 0.317 h. It also gave a Tmax [1, 2] of 0.813 ± 0.222 h, a t1/2 [1, 2] of 4.6 ± 0.0033 h and an AUC0-last [1, 3] of 364 ± 263 ng·min/mL. The “AUC0-∞” value [1, 3] was 386 ± 264 ng·min/mL, the CL/F [1, 3] was 2.98 ± 4.01 L/min and the MRT [1, 3] was 3.92 ± 0.817 h. It also gave a Tmax [1, 3] of 1 ± 0.423 h, a t1/2 [1, 3] of 3.88 ± 1.2 h and an AUC0-last [1, 4] of 664 ± 520 ng·min/mL. For the same molecule, the “AUC0-∞” value [1, 4] was 691 ± 520 ng·min/mL, the CL/F [1, 4] was 2.70 ± 2.36 L/min and the Cmax [1, 4] was 2.18 ± 1.54 ng/mL. It also gave an MRT [1, 4] of 4.42 ± 0.8 h, a Tmax [1, 4] of 1.06 ± 0.395 h and a t1/2 [1, 4] of 4.37 ± 0.783 h. For the same molecule, the AUC0-last [1, 5] was 1549 ± 771 ng·min/mL, the “AUC0-∞” value [1, 5] was 1609 ± 810 ng·min/mL and the CL/F [1, 5] was 1.50 ± 0.61 L/min. The Cmax [1, 5] was 4.56 ± 2.01 ng/mL, the MRT [1, 5] was 5.42 ± 0.35 h and the Tmax [1, 5] was 1.09 ± 0.597 h. For the same molecule, the t1/2 [1, 5] was 5.1 ± 0.55 h, the AUC0-last [1, 6] was 1197 ± 446 ng·min/mL and the “AUC0-∞” value [1, 6] was 1246 ± 473 ng·min/mL. It also gave a CL/F [1, 6] of 0.90 ± 0.32 L/min, a Cmax [1, 6] of 5.73 ± 2.17 ng/mL and an MRT [1, 6] of 4.5 ± 0.683 h. The Tmax [1, 6] was 0.625 ± 0.267 h, the t1/2 [1, 6] was 4.58 ± 1.02 h and the Cmax ([1]; Beagle dogs, analyte metabolite 7-OH Granisetron, nasal GNS-B01 0.5 mg granisetron) was 1.26 ± 0.845 ng/mL.

With CN1[C@@H]2CCC[C@H]1C[C@@H](NC(=O)c1nn(C)c3ccccc13)C2 [Granisetron, 1-methyl-N-((1R,3r,5S)-9-methyl-9-azabicyclo[3.3.1]nonan-3-yl)-1H-indazole-3-carboxamide, reference compound] the AUC(0-t) (in vivo; iv) was 28.4 ng·h/mL, the MRT (in vivo; iv) was 1.24 h and the half-life (in vivo; iv) was 1.1 ± 0.178 h. The MRT (in vivo; po) was 1.5 h, the Vd/F (in vivo; po) was 531 ± 234 L and the half-life (in vivo; po) was ~1 h. For the same molecule, the CL/F ([1]; Beagle dogs, analyte Granisetron, nasal GNS-B01 0.5 mg/dog) was 4.20 ± 4.35 L/min, the CL/F ([1]; Beagle dogs, analyte Granisetron, nasal GNS-B01 1.0 mg/dog) was 4.26 ± 3.69 L/min and the CL/F ([1]; Beagle dogs, analyte Granisetron, nasal GNS-B01 2 mg/dog) was 2.80 ± 2.18 L/min. The Tmax ([1]; both, beagle, dog, plasma, inhaled or intranasal, 0.5 mg, Tmax, Beagle dogs, analyte Granisetron, nasal GNS-B01 0.5 mg/dog) was 0.448 h, the half-life ([1]; both, beagle, dog, plasma, inhaled or intranasal, 0.5 mg, analyte Granisetron, nasal GNS-B01 0.5 mg/dog) was 0.997 ± 0.245 h and the Tmax ([1]; both, beagle, dog, plasma, inhaled or intranasal, 1 mg, Tmax (range), Beagle dogs, intranasal administration 1.0 mg/dog) was 0.25 to 0.75 h. The Tmax ([1]; both, beagle, dog, plasma, inhaled or intranasal, 1 mg, Tmax, Beagle dogs, analyte Granisetron, nasal GNS-B01 1.0 mg/dog) was 0.438 h, the half-life ([1]; both, beagle, dog, plasma, inhaled or intranasal, 1 mg, analyte Granisetron, nasal GNS-B01 1.0 mg/dog) was ~1 h and the Tmax ([1]; both, beagle, dog, plasma, inhaled or intranasal, 2 mg, Tmax, Beagle dogs, analyte Granisetron, nasal GNS-B01 2 mg/dog) was 0.397 h. It also gave a half-life ([1]; both, beagle, dog, plasma, inhaled or intranasal, 2 mg, analyte Granisetron, nasal GNS-B01 2 mg/dog) of 1.3 ± 0.352 h and a Tmax ([1]; both, beagle, dog, plasma, po, 1 mg, Tmax (range), Beagle dogs, oral administration 1.0 mg/dog) of 0.5 to 1 h.
